Literature values in US20240254438A1, “MULTI-REGIONAL HUMAN NEURAL CIRCUITS IN ASSEMBLOIDS DERIVED FROM PLURIPOTENT STEM CELLS” (The Board of Trustees of the Leland Stanford Junior …, priority 2021, published 2024).

Assays:
Wnt signaling = conditions: TM3 cells
Smo heptahelical domain = Smo heptahelical domain (Homo sapiens, UniProt Q99835)
[1] = molecular target: element-binding protein (CBP) (Homo sapiens, UniProt Q92793); conditions: binds to element-binding protein (CBP)
TNKS2 = molecular target: T1, TNKS2 (Homo sapiens, UniProt Q9H2K2)
T1 sequence (Q9H2K2 1-1166): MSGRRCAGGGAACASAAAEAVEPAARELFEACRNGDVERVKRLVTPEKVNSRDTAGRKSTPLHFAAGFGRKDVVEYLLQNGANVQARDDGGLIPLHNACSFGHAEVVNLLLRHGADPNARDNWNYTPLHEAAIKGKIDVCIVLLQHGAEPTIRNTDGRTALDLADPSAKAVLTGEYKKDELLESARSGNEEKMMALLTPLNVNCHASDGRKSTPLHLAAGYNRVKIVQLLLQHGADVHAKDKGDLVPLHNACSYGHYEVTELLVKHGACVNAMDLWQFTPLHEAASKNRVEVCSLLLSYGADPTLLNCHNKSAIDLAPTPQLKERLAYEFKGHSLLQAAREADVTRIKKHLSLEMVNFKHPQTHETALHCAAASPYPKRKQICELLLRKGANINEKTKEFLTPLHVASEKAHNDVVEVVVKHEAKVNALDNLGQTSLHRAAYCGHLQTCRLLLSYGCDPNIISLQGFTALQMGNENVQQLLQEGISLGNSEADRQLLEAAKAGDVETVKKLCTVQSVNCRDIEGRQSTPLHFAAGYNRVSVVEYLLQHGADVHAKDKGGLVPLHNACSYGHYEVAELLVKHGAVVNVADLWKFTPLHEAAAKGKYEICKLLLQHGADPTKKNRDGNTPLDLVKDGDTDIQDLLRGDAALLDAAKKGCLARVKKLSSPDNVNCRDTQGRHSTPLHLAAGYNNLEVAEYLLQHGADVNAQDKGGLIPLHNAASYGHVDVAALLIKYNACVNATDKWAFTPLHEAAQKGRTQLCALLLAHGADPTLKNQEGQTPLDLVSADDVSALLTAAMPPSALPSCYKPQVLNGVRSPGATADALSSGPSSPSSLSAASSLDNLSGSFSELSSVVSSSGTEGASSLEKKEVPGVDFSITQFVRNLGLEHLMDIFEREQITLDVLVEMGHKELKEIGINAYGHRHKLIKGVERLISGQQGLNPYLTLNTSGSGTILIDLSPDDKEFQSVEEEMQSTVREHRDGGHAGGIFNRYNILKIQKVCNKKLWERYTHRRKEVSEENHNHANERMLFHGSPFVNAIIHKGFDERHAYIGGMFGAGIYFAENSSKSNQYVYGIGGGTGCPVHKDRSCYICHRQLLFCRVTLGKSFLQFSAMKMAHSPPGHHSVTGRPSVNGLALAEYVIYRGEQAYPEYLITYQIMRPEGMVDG

PORCN [2] = test system: PORCN
PORCN [3] = conditions: HEK293 cells, Wnt3A-mediated TCF luciferase
[4] = test system: Wnt processing and secretion; conditions: cell-free assay

Smo heptahelical domain, sequence (Q99835 28-787): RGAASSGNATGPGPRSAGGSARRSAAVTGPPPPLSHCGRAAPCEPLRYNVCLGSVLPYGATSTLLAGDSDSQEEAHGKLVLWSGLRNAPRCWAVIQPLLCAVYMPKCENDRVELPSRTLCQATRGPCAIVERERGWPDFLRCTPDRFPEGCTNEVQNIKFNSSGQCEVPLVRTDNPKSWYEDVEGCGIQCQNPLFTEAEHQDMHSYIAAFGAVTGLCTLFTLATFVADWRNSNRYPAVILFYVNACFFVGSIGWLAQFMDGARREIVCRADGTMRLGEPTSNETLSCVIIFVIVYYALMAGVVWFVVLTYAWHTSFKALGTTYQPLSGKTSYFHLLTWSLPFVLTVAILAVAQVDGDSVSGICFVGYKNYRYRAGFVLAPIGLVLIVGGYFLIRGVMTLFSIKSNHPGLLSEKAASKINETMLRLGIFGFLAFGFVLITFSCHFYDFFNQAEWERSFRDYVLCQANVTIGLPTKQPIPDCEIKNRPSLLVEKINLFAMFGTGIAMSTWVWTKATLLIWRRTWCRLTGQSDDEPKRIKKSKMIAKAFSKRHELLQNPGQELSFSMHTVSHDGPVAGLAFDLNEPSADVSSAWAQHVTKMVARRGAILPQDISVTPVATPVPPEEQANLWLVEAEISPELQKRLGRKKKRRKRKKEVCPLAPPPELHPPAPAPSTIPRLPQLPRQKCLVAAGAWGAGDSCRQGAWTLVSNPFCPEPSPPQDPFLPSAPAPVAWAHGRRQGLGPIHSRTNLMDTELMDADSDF
element-binding protein (CBP), sequence (Q92793 whole entry): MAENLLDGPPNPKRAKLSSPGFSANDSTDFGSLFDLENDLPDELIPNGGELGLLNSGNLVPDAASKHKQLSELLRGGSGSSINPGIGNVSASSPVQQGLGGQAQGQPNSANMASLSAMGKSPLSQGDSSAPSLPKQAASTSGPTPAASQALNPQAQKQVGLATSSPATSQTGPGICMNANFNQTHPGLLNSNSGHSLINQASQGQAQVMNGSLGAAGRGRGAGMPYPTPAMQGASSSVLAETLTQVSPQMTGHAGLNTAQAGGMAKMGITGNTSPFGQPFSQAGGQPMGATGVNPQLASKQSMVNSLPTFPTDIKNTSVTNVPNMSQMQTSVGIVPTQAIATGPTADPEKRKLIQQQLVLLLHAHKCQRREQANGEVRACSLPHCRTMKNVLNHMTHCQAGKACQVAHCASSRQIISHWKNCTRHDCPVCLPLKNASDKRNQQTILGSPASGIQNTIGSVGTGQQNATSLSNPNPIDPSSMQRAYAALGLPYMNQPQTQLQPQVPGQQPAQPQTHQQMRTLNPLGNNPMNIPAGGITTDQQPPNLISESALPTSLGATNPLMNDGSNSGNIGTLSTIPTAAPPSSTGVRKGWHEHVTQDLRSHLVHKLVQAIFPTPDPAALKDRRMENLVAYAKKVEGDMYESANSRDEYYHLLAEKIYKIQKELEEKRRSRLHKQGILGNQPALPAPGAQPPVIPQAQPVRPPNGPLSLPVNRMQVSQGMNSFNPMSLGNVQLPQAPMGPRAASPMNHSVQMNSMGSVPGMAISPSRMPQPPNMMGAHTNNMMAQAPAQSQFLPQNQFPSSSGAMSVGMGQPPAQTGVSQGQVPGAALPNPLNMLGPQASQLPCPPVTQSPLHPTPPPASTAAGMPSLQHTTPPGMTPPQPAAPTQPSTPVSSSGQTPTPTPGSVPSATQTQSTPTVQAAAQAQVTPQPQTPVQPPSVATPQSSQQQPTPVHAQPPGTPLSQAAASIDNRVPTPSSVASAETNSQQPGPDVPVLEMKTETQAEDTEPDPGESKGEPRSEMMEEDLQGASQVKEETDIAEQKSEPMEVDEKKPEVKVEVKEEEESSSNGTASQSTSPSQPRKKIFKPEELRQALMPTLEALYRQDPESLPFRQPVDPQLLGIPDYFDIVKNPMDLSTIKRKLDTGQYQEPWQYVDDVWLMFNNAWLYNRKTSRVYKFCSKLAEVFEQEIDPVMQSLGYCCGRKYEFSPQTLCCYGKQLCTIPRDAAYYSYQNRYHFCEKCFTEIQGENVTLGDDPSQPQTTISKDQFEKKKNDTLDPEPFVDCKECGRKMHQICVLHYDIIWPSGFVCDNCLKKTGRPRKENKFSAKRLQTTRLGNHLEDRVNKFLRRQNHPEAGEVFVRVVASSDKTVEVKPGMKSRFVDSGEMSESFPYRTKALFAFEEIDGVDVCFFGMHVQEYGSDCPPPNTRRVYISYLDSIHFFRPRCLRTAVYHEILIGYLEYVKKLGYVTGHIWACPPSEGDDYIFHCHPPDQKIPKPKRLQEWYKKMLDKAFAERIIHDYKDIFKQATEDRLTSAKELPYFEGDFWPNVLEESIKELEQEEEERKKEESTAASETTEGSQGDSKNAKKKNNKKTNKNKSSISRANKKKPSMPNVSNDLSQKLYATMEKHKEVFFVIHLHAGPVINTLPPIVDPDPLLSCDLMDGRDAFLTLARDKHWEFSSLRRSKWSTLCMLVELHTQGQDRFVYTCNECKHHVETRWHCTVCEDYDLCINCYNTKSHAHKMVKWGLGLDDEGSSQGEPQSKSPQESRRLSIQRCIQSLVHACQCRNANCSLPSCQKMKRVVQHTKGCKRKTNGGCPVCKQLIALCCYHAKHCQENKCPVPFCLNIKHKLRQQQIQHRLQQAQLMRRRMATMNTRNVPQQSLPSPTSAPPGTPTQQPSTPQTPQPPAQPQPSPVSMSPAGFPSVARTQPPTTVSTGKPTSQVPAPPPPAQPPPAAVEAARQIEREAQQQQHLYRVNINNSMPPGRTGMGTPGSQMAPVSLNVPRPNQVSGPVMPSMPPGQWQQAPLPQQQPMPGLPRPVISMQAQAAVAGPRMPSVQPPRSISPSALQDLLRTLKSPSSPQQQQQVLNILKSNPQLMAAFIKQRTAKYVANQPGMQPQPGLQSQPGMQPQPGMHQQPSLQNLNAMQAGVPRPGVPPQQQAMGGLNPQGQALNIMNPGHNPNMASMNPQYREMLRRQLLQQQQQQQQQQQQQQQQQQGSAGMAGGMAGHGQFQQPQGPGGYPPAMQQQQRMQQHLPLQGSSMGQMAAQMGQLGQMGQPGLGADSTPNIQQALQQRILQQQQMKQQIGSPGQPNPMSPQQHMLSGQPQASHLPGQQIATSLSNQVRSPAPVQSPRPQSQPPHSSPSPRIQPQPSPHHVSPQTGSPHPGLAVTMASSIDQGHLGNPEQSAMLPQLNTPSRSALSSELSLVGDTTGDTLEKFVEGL

Cc1cc(-c2ncc(CC(=O)Nc3ccc(-c4cnccn4)cn3)cc2C)ccn1 [LGK-974]
IC50 (Wnt signaling): 0.4 nM

CNC1CCC(N(Cc2cccc(-c3ccncc3)c2)C(=O)c2sc3ccccc3c2Cl)CC1 (stereo not shown) [SAG]
Kd (Smo heptahelical domain): 59 nM

O=C1[C@H](Cc2ccc(O)cc2)N2C(=O)CCN(C(=O)NCc3ccccc3)[C@H]2CN1Cc1cccc2ccccc12 [ICG-001]
IC50 [1]: 3000 nM

COc1ccc(-n2c(SCCCN3C(=O)c4cccc5cccc(c45)C3=O)nnc2-c2ccncc2)cc1 [WIKI4]
IC50 (TNKS2): 15 nM

O=C(CSc1nc2c(c(=O)n1-c1ccccc1)SCC2)Nc1ccc(-c2ccccc2)cn1 [IWP-L6]
EC50 (PORCN [2]): 0.5 nM

Cc1cc(-c2ccc(CC(=O)Nc3ccc(-c4cccnc4)cc3)cc2)ccn1 [Wnt-C59]
IC50 (PORCN [3]): 0.074 nM

Cc1ccc2nc(NC(=O)CSc3nc4c(c(=O)n3-c3ccccc3)SCC4)sc2c1 [IWP-2]
IC50 [4]: 27 nM
